Results reported in publication PMC9861386, “N-Heterocyclic Carbene-Iridium Complexes as Photosensitizers for In Vitro Photodynamic Therapy to Trigger Non-Apoptotic Cell Death in Cancer Cells” (Molecules, 2023).

Columns and labels:
[1] = tested on: PC-3 cells; test: Subcellular localization by confocal microscopy with MitoTracker Deep Red; assay type: cell-based, human; settings: 500 nM, 24 h
Excerpt: The intracellular localization of complex 4a was studied by confocal laser scanning microscopy. The treatment of PC-3 (human prostate) cells with complex 4a led to the development of intense fluorescence in the cytoplasm (Figure 9B). Specific subcellular location was investigated by staining the organelles with the specific fluorescent probe MitoTracker Deep Red (Figure 9C). […] However, an accumulation of complex 4a in lysosomes or the endoplasmic reticulum cannot be excluded.
Cell imaging was performed on an LSM 710 NLO-Meta confocal microscope with spectral detection (Zeiss, Göttingen, Germany). Images were taken through a 40×/1.2 W objective. Microscopy imaging experiments were performed with PC-3 cells that were cultured in 6-well plates and on glass slides (180,000 cells per well) for 18 h before incubation with complex 4a at different concentrations (0.25 μM, 0.5 μM and 1 μM) for various times. After 24 h, the MitoTracker deep red probe (Fisher Scientific, Illkirch, France) was incubated on live cells at a final concentration of 200 nM during 15 min at 37 °C in a 5% CO2 humidified incubator and then observed in one pass two channels 440–544 nm for complex 4a (two-photon excitation at 720 nm) and 644–700 nm for MitoTracker (excitation at 633 nm) at the same time. Merged images were generated to evaluate colocalization of the mitochondrial probe with complex 4a. […]

[2] = tested on: PARP, caspase-7 and caspase-8 processing; test: Western blot of apoptotic biomarkers; assay type: cell-based, human; settings: 458 nm irradiation, 72 h
Excerpt: Its effects on apoptotic biochemical markers by Western blotting analysis in MCF7/FasR cells and its Bcl-xL-overexpressed counterpart in comparison with the apoptotic inducer TNFα were examined (Figure 13). Cleavage-mediated inactivation of DNA repair enzyme poly(ADP-ribose) polymerase (PARP) by executioner caspases (e.g., caspase-3, caspase-7) has been considered as a marker of apoptotic cell death. The treatment with TNFα was associated with the proteolytic cleavage of PARP (decreased in 113 kDa full-length, increased in apoptotic 89 kDa fragment) in MCF7/FasR cells (Figure 13A). Since the MCF7 cell line lacks caspase-3 due to the functional deletion of the CASP-3 gene, caspase-7 is the only executioner caspase in these cells, as evidenced by the decreased content in the 35 kDa full-length pro-caspase-7 observed upon TNFα treatment (Figure 13A). The upstream caspase-8 that can directly process caspase-7 (extrinsic pathway) was also activated (loss of 55 kDa full-length pro-caspase-8). […] Importantly, the overexpression of Bcl-xL had no effect on apoptotic markers, regardless of the concentration of complex 4a used, implying that a MOMP-dependent mechanism is unlikely to be involved. In parallel experiments, cell viability and quantification of ATP and GSH levels were assessed. […] The early transient elevation of cytosolic ATP level is a necessary condition for the apoptotic cell death process, followed by a drop that correlates with the time course of cell death. […]
We next evaluated the effect of the pan-caspase inhibitor z-VAD-fmk on caspase signaling. […]
Cell lysate preparation and Western blotting were carried out as previously described. […] Proteins were visualized by ECL (Clarity Western ECL Substrate, Bio-Rad, Marnes-la-Coquette, France) using anti-rabbit or anti-mouse HRP-conjugated IgG (Bio-Rad); analysis of Western blots was assessed with a ChemiDoc imaging system (Bio-Rad).
Figure 13 Evaluation of apoptotic biomarkers. […] (B) MTT, ATP and GSH assays were evaluated in duplicate samples. […]

## CC(C)[n+]1ccn2[c]1[Ir-3]13([c]4ccccc4-c4cccc[n+]41)([c]1ccccc1-c1cccc[n+]13)[c]1n(cc[n+]1C(C)C)C2.F[P-](F)(F)(F)(F)F [Complex 4a]
[1]
  Pearson colocalization coefficient with MitoTracker Deep Red (mitochondria): 88%
[2]; 50 nM, MCF7/FasR and MCF7/FasR/Bcl-xL
  processing of PARP, caspase-7 and caspase-8 at GI50 concentration: no processing of PARP, caspase-7 and caspase-8 were observed
[2]; 250 nM and 1 µM, MCF7/FasR
  processing of PARP, caspase-7 and caspase-8 at high concentration: cleavage of PARP and processing of caspase-7 and caspase-8
[2]; 500 nM, MCF7/FasR
  procaspase-7 expression and PARP activation: significant loss of procaspase-7 expression
